Source: US20230167108A1, “CRYSTAL OF IMIDAZOPYRIDINONE COMPOUND OR SALT THEREOF” (Kissei Pharmaceutical Co., Ltd., priority 2020, published 2023)

Experiments:
[1] = tested on: TNBS induced colitis model rat; assay: Therapeutic effect in colitis model (suppression of intestinal permeability of FITC); format: in vivo; details: 3 mg/kg orally once a day for 3 days, serum FITC, mean
Experimental: Test Example 2 Therapeutic Effect in Colitis Model
(1) TNBS Induced Colitis Model Rat
Thus, the suppressive effect on the intestinal permeability based on oral administration of the test compound was evaluated as an indicator of medicinal efficacy.
SD male rats: 8-week-old SIX (Japan SLC) were used, Under pentobarbital anesthesia, 300 μL of 28 mg/mL TNBS which was adjusted with 50% ethanol was administered at a point 8 cm from the anus in the large intestine to cause inflammation. To the solvent-treated group was administrated 300 μL of 50% ethanol. Animals were fasted for 48 hours prior to administration of TNBS. The test compound (3 mg/kg) prepared with 0.05% methylcellulose solution was orally administered once a day from the next day, and it was administered for a total of 3 days. After administering for 3 clays, 50 mg/kg FITC was orally administered 4 hours after the administration of the test compound. Blood samples were collected from jugular vein under isoflurane anesthesia after 4 hours. The serum was centrifuged, and fluorescence intensity was detected by PHERAstar FSX (BMG Labtech) to measure the concentration of FITC permeating into circulating blood through the mesentery. The suppressive rate on the intestinal permeability of the test compound was calculated based on the value of the test substance-free group as 0 and the value of the TNBS-untreated group as 100.

human PHD2184-418 = target: T1, human PHD2184-418 (Homo sapiens, UniProt Q9GZT9); assay: PHD2 inhibitory test (fluorescence polarization, FITC-labeled HIF-1α556-574); format: binding; details: 2 μM 2-oxoglutarate, 37° C. for 60 minutes
T1 construct: containing amino acid residues 184 to 418 of the protein represented by CAC42509; histidine tag (N); made in house; host or cells: E. coli BL21 (DE3), pET-30a (+) vector
Experimental: Test Example 1 PHD2 Inhibitory Test
(1) Expression and Preparation of Human […]
Human PHD2184-418 is containing amino acid residues 184 to 418 of the protein represented by CAC42509 (GenBank accession ID) was expressed and prepared by the following method.
An expression construct of human PHD2184-418 containing an N-terminal histidine tag was introduced into pET-30a (+) vector, and the sequence was confirmed. This vector was introduced into BL21 (DE3) strain and cultured at 37° C. in LB medium containing antibiotics. After culturing, a cell lysis solution was added to the cells, and then the cells were disrupted and suspended by sonication. The disrupted suspension was centrifuged, and the supernatant was purified by Ni column to give human PHD2184-418.
Human HIF-1α556-574 (FITC-labeled HIF-1α556-574), containing FITC-Ahx at the N-terminal of HIF-1α556-574 containing amino acid residues 556 to 574 (partial peptide) of human HIF-1α, was used as a substrate. Using FITC-labeled HIF-1α556-574, the competitive inhibition between 2-oxoglutarate and the test compound ([…]) was evaluated based on the change in fluorescence polarization of FITC-labeled HIF-1α556-574 by the following method.
An enzyme (human PHD2184-418) and the substrate were diluted with an assay buffer (pH 7.4) containing 10 mM HEPES, 150 mM NaCl, 10 μM MnCl2-4H2O, 2 μM 2-oxoglutarate and 0.05% Tween-20. […]

[2] = Rat PK study: concentration of compound in large intestine tissue and plasma; format: in vivo; details: 3 mg/kg oral, non-fasted SD rats
Experimental: Test Example 3 Concentration of Compound in Large Intestine Tissue
The test compound (3 mg/kg/5 mL) prepared with 0.05% methylcellulose was orally administered to non-fasted rats (SD, 8-week-old, male, T SLC). Blood samples were collected from jugular vein 0.25, 0.5, 1, 2, 4, 6 and […] hours after the administration. Laparotomy was performed under isoflurane anesthesia, and the large intestine was isolated. The collected distal large intestine (about 5 cm) was cut open, and then the large intestine extracted was washed with saline on a dish. After washing, the large intestine was minced with small scissors. About 150 mg thereof was moved to a tube. To the tube was added 100 μL of saline, and the mixture was homogenized using shake master (1000 rpm×30 minutes). Samples were prepared by the addition with quadruple volume of saline as the final volume. The concentrations of the test compound in the large intestine tissue and the plasma were measured through a quantitative analysis using liquid chromatography-mass spectrometry (LC/MS).
Cmax: maximum plasma concentration of the test compound in the case of oral administration (ng/mL) AUC: area under the plasma test compound concentration-time curve (ng*min/mL) Plasma: plasma test compound concentration after 8 hours (ng/mL) Colon: concentration of the test compound in the large intestine tissue after hours (ng/g) C/P: ratio of the above Colon and Plasma

[3] = Solid stability test (physicochemical and chemical stability of crystals); details: open condition at 40° C., 1 month; for Amount of the mass change of the compound 1: HPLC area normalization; for Properties: appearance; for Crystal form change: powder X-ray diffraction
Text: Test Example 4: Solid Stability Test
The physicochemical stability and chemical stability for the crystals of the compound 1 (crystal forms I to III), the crystals of the methanesulfonic acid salt of the compound 1 (crystal forms I, II and IV), the crystals of the hydrochloride (crystal forms I and III), the crystal form I of the p-toluenesulfonic acid salt, the crystal form I of the sodium salt and the crystal form I of the calcium salt were examined.
Physicochemical stability: Each crystal was stored under open condition at 40° C. The powder X-ray diffraction of the sample was measured at the initial point and 1 month later, and the change in crystal form Was confirmed. The change in properties was also observed at the same time. Chemical stability: Each crystal was stored under open condition at 40° C. The mass of the compound 1 in the sample was measured under the following HPLC measurement conditions at the initial point and 1 month later.
Detector: Ultraviolet and visible absorptiometer/wavelength: 225 nm
Column: L-column 2 ODS, 3 μm, 4.6×150 mm (Chemicals Evaluation and Research Institute)
Column temperature: Constant temperature around 40° C. Flow rate: 1.0 mL/min Mobile phase A: Potassium dihydrogenphosphate and dipotassium hydrogenphosphate aqueous solution adjusted to 10 mmol/L with water Mobile phase B: Acetonitrile Mobile phase ratios: 0 to 30 minutes: mobile phase A/mobile phase B=88/12 30 to 50 minutes: mobile phase A/mobile phase B=88/12 to 25/75 50 to 55 minutes: mobile phase A/mobile phase B=25/75 55 to 55.01 minutes: mobile phase A/mobile phase B=25/75 to 88/12 55.01 to 75 minutes: mobile phase Airmobile phase B=88/12 Amount of injection: 5 μL Sample cooler: 4° C. Dissolution solvent: Mixed solution (mobile phase A/acetonitrile=75/25) Sample solution: Sample was dissolved in dissolution solvent and adjusted to about 1 mg/mL
Excluding the peaks derived from the blank, the peak areas of the compound 1 and an analogous substance were measured by automatic integration, and the mass of the compound 1 was calculated by area normalization method. Further, the amount of the mass change of the compound 1 after the storage was calculated.

T1 sequence (Q9GZT9 184-418): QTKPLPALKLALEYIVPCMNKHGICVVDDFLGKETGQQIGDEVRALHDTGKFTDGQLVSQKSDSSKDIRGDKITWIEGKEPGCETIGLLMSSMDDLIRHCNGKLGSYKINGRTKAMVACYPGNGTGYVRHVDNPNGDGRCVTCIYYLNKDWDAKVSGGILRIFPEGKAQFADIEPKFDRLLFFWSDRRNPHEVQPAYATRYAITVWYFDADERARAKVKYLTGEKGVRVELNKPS

SMILES | Inhibition (%): suppressive rate on the intestinal permeability [1] [%] | Inhibition (%): suppressive rate on the intestinal permeability ([1]; listed as compound 1) | IC50 (human PHD2 binding inhibitory activity) (human PHD2184-418) | IC50 (human PHD2184-418; read-out: IC50 (human PHD2 binding inhibitory activity)) [nM] | C/P: ratio of Colon and Plasma [2] | Colon: concentration of the test compound in the large intestine tissue ([2]; distal large intestine) [ng/g] | Kp ([2]; male, rat, large intestine tissue / plasma, read-out: C/P: ratio of Colon and Plasma) | concentration at 8 h ([2]; male, rat, plasma, 8 hours, read-out: Plasma: plasma test compound concentration after 8 hours) [ng/mL] | AUC ([2]; male, rat, plasma, read-out: AUC: area under the plasma test compound concentration-time curve (converted)) [ng·h/mL] | Cmax ([2]; male, rat, plasma, read-out: Cmax: maximum plasma concentration of the test compound) [ng/mL] | Amount of the mass change of the compound 1 [3] | Properties [3] | Crystal form change [3]
Cn1c(C(=O)O)cnc1CN1CC[C@H](n2c(=O)n(-c3ccc(-c4ccc(C(=O)O)cc4)nc3)c3cccnc32)C1 [Compound 1, 2-{[(3S)-3-{1-[6-(4-Carboxyphenyl)pyridin-3-yl]-2-oxo-2,3-dihydro-1H-imidazo[4,5-b]pyridin-3-yl}pyrrolidin-1-yl]methyl}-1-methyl-1H-imidazole-5-carboxylic Acid] | 101 | suppressed | inhibited binding between PHD2 and HIF-1α | 180 | higher concentration in the large intestine tissue than the concentration in the plasma | 164 | > 164 | < 1 | 1.95 | 1 | – | – | –
Cn1c(C(=O)O)cnc1CN1CC[C@H](n2c(=O)n(-c3ccc(-c4ccc(C(=O)O)cc4)nc3)c3cccnc32)C1 [Crystal form I of the compound 1] | – | – | – | – | – | – | – | – | – | – | No change | White powder, no change | No change
Cn1c(C(=O)O)cnc1CN1CC[C@H](n2c(=O)n(-c3ccc(-c4ccc(C(=O)O)cc4)nc3)c3cccnc32)C1 [Crystal form II of the compound 1] | – | – | – | – | – | – | – | – | – | – | −0.03% | White powder, no change | No change
Cn1c(C(=O)O)cnc1CN1CC[C@H](n2c(=O)n(-c3ccc(-c4ccc(C(=O)O)cc4)nc3)c3cccnc32)C1 [Crystal form III of the compound 1] | – | – | – | – | – | – | – | – | – | – | −0.04% | White powder, no change | No change
